Source: the supplement of paper PMC10307832

Key:
Assay in all cases: relative viability (nuclei count vs DMSO), 5 days (fraction); higher = more cells survive
R406 + Tozasertib = compound: COc1cc(Nc2ncc(F)c(Nc3ccc4c(n3)NC(=O)C(C)(C)O4)n2)cc(OC)c1OC [R406] + Cc1cc(Nc2cc(N3CCN(C)CC3)nc(Sc3ccc(NC(=O)C4CC4)cc3)n2)n[nH]1 [Tozasertib] (partner 0.1 µM)
Method in brief: (§1)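 Nuclei were stained with Hoechst during a one-step fixation (final 0.05% Triton X-100, 1% formaldehyde, 1 ug/ml Hoechst) carried out 5 days after dosing, then counted on 4× images. The cells, lung cancer lines in 1536-well plates, had been dosed by pin tool the day after seeding with one drug alone or a fixed anchor-drug dose plus five library-drug doses (not always all listed) in √10 steps. Relative viability is the nuclei count in treated wells divided by that in vehicle wells, and each value is the median of duplicate plates.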

Daporinad + Linsitinib = compound: O=C(/C=C/c1cccnc1)NCCCCC1CCN(C(=O)c2ccccc2)CC1 [Daporinad] + C[C@]1(O)C[C@@H](c2nc(-c3ccc4ccc(-c5ccccc5)nc4c3)c3c(N)nccn32)C1 [Linsitinib] (partner 1 µM)
Method in brief: as §1

Daporinad + Navitoclax = compound: O=C(/C=C/c1cccnc1)NCCCCC1CCN(C(=O)c2ccccc2)CC1 [Daporinad] + CC1(C)CCC(c2ccc(Cl)cc2)=C(CN2CCN(c3ccc(C(=O)NS(=O)(=O)c4ccc(N[C@H](CCN5CCOCC5)CSc5ccccc5)c(S(=O)(=O)C(F)(F)F)c4)cc3)CC2)C1 [Navitoclax] (partner 0.5 µM)
Method in brief: as §1

Daporinad + Palbociclib = compound: O=C(/C=C/c1cccnc1)NCCCCC1CCN(C(=O)c2ccccc2)CC1 [Daporinad] + CC(=O)c1c(C)c2cnc(Nc3ccc(N4CCNCC4)cn3)nc2n(C2CCCC2)c1=O [Palbociclib] (partner 0.5 µM)
Method in brief: as §1

| Cell Line | relative viability (R406 + Tozasertib; first compound 0.08 µM) | relative viability (R406 + Tozasertib; first compound 0.8 µM) | relative viability (R406 + Tozasertib; first compound 2.53 µM) | relative viability (R406 + Tozasertib; first compound 8 µM) | relative viability (Daporinad + Linsitinib; first compound 0.0005 µM) | relative viability (Daporinad + Linsitinib; first compound 0.001581 µM) | relative viability (Daporinad + Linsitinib; first compound 0.005 µM) | relative viability (Daporinad + Linsitinib; first compound 0.01581 µM) | relative viability (Daporinad + Navitoclax; first compound 0.0005 µM) | relative viability (Daporinad + Navitoclax; first compound 0.001581 µM) | relative viability (Daporinad + Navitoclax; first compound 0.005 µM) | relative viability (Daporinad + Navitoclax; first compound 0.01581 µM) | relative viability (Daporinad + Palbociclib; first compound 0.0005 µM) | relative viability (Daporinad + Palbociclib; first compound 0.001581 µM) | relative viability (Daporinad + Palbociclib; first compound 0.005 µM) | relative viability (Daporinad + Palbociclib; first compound 0.01581 µM) | relative viability (R406 + Tozasertib; first compound 0.253 µM) |
| --- | --- | --- | --- | --- | --- | --- | --- | --- | --- | --- | --- | --- | --- | --- | --- | --- | --- |
| H3255 | 0.673 | 0.782 | 0.604 | 0.603 | 0.913 | 0.951 | 1.03 | 1.13 | 0.483 | 0.429 | 0.584 | 0.695 | 0.308 | 0.322 | 0.344 | 0.33 | – |
| NCI-H1437 | 0.403 | 0.409 | 0.417 | 0.416 | 0.969 | 0.986 | 0.976 | 0.965 | 1.09 | 1.1 | 1.04 | 1.07 | 0.274 | 0.332 | 0.338 | 0.289 | 0.433 |
| LU99A | 0.274 | 0.246 | 0.313 | 0.265 | 0.497 | 0.55 | 0.604 | 0.572 | 0.71 | 0.833 | 0.94 | 0.931 | 0.381 | 0.414 | 0.391 | 0.391 | 0.312 |
| SK-MES-1 | 0.916 | 0.914 | 0.719 | 0.377 | 1.1 | 1.13 | 1.17 | 0.905 | 1.27 | 1.16 | 1.31 | 0.852 | 0.332 | 0.303 | 0.329 | 0.352 | 0.942 |
| HCC-827 | 0.421 | 0.45 | 0.386 | 0.233 | 1 | 0.998 | 1.02 | 0.921 | 1.12 | 1.03 | 1.05 | 1.08 | 0.419 | 0.486 | 0.5 | 0.435 | 0.463 |
| LK-2 | 0.17 | 0.166 | 0.182 | 0.186 | 0.665 | 0.648 | 0.362 | 0.196 | 0.865 | 1.04 | 0.583 | 0.393 | 0.637 | 0.765 | 0.279 | 0.214 | 0.163 |
| HCC-366 | 0.101 | 0.133 | 0.0575 | 0.0313 | 0.687 | 0.753 | 0.87 | 0.887 | 0.993 | 1.02 | 1.17 | 1.06 | 0.451 | – | 0.432 | 0.37 | 0.0718 |
| BEN | 0.522 | 0.499 | 0.569 | 0.543 | 0.923 | 0.938 | 0.951 | 1.22 | 0.074 | 0.147 | 0.0521 | 0.083 | 0.528 | 0.459 | 0.433 | 0.599 | 0.478 |
